The text below walks through data of patent US10975080B2, “Compounds and compositions for inhibiting the activity of SHP2” (NOVARTIS AG, priority 2015, dated 2021).

By IC50 is commonly meant the concentration needed to halve the response being measured.

For the assay, the target named is SHP2 (Homo sapiens (Human), UniProt Q06124). Put plainly: SHP2 Allosteric Inhibition Assay. The format is biochemical. The conditions noted are these: 0.5 nM SHP2 with 0.5 μM peptide IRS1_pY1172(dPEG8)pY1222; surrogate substrate DiFMUP; 25° C.; read-out: SHP2 IC50. Summed up: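 Phosphatase activity of bis-tyrosyl-phosphopeptide-activated SHP2 was read by prompt fluorescence from DiFMUP turnover. After 30–60 min preincubation at 25 °C, DiFMUP was added for 30 min at 25 °C. IC50s came from control-normalized dose-response fitting.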
SHP2, sequence (Q06124 whole entry): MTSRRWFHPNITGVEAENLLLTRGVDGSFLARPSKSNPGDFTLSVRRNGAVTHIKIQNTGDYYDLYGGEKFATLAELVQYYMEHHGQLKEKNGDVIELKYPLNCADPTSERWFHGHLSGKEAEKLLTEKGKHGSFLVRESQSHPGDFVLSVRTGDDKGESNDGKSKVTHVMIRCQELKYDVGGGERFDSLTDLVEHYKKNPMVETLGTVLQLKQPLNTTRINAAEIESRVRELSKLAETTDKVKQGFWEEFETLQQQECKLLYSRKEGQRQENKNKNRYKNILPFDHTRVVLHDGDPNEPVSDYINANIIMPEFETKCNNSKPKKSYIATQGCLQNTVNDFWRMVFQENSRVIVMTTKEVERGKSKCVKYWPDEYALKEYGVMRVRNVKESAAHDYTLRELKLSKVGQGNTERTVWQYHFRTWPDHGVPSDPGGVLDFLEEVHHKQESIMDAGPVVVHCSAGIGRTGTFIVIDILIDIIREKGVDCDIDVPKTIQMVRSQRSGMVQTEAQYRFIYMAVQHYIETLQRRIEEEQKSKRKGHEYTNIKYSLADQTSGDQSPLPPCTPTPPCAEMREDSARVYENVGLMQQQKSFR
With `C[C@@H]1OCC2(CCN(c3nc4[nH]nc(-c5cc(F)ccc5F)c4c(=O)n3C)CC2)[C@@H]1N` [Example 62, 6-((3S,4S)-4-amino-3-methyl-2-oxa-8-azaspiro[4.5]decan-8-yl)-3-(2,5-difluorophenyl)-5-methyl-1,5-dihydro-4H-pyrazolo[3,4-d]pyrimidin-4-one], the IC50 turned out to be 17 nM.
For `C[C@@H]1OCC2(CCN(c3nc4[nH]nc(-c5ccccc5F)c4c(=O)n3C)CC2)[C@@H]1N` [Example 63, 6-((3S,4S)-4-amino-3-methyl-2-oxa-8-azaspiro[4.5]decan-8-yl)-3-(2-fluorophenyl)-5-methyl-1,5-dihydro-4H-pyrazolo[3,4-d]pyrimidin-4-one] the value was 23 nM; for `COc1ccc(-c2n[nH]c3nc(N4CCC5(CC4)CO[C@@H](C)[C@H]5N)n(C)c(=O)c23)cn1` [Example 64, 6-((3S,4S)-4-amino-3-methyl-2-oxa-8-azaspiro[4.5]decan-8-yl)-3-(6-methoxypyridin-3-yl)-5-methyl-1,5-dihydro-4H-pyrazolo[3,4-d]pyrimidin-4-one], 24 nM; for `C[C@@H]1OCC2(CCN(c3nc4[nH]nc(-c5cc(F)cc(F)c5)c4c(=O)n3C)CC2)[C@@H]1N` [Example 65, 6-((3S,4S)-4-amino-3-methyl-2-oxa-8-azaspiro[4.5]decan-8-yl)-3-(3,5-difluorophenyl)-5-methyl-1,5-dihydro-4H-pyrazolo[3,4-d]pyrimidin-4-one], 38 nM.
For `COc1ccccc1-c1n[nH]c2nc(N3CCC4(CC3)CO[C@@H](C)[C@H]4N)n(C)c(=O)c12` [Example 66, 6-((3S,4S)-4-amino-3-methyl-2-oxa-8-azaspiro[4.5]decan-8-yl)-3-(2-methoxyphenyl)-5-methyl-1,5-dihydro-4H-pyrazolo[3,4-d]pyrimidin-4-one] the value was 91 nM.
To `Cc1ncccc1-c1n[nH]c2nc(N3CCC4(CC3)CO[C@@H](C)[C@H]4N)n(C)c(=O)c12` [Example 67, 6-((3S,4S)-4-amino-3-methyl-2-oxa-8-azaspiro[4.5]decan-8-yl)-5-methyl-3-(2-methylpyridin-3-yl)-1,5-dihydro-4H-pyrazolo[3,4-d]pyrimidin-4-one] belongs 96 nM.
`COc1cccc(-c2n[nH]c3nc(N4CCC5(CC4)COC[C@H]5N)n(C)c(=O)c23)c1Cl` [Example 68, (S)-6-(4-amino-2-oxa-8-azaspiro[4.5]decan-8-yl)-3-(2-chloro-3-methoxyphenyl)-5-methyl-1,5-dihydro-4H-pyrazolo[3,4-d]pyrimidin-4-one]: the IC50 worked out at 25 nM.
With `Cn1c(N2CCC3(CC2)COC[C@H]3N)nc2[nH]nc(-c3ccncc3)c2c1=O` [Example 69, (S)-6-(4-amino-2-oxa-8-azaspiro[4.5]decan-8-yl)-5-methyl-3-(pyridin-4-yl)-1,5-dihydro-4H-pyrazolo[3,4-d]pyrimidin-4-one], the concentration for half-maximal inhibition (IC50) turned out to be 39 nM.
For `C[C@@H]1OCC2(CCN(c3nc4[nH]nc(-c5ccncc5)c4c(=O)n3C)CC2)[C@@H]1N` [Example 70, 6-((3S,4S)-4-amino-3-methyl-2-oxa-8-azaspiro[4.5]decan-8-yl)-5-methyl-3-(pyridin-4-yl)-1,5-dihydro-4H-pyrazolo[3,4-d]pyrimidin-4-one] the value was 8 nM; for `C[C@@H]1OCC2(CCN(c3nc4[nH]nc(-c5ccnc(N(C)C)c5Cl)c4c(=O)n3C)CC2)[C@@H]1N` [Example 71, 6-((3S,4S)-4-amino-3-methyl-2-oxa-8-azaspiro[4.5]decan-8-yl)-3-(3-chloro-2-(dimethylamino)pyridin-4-yl)-5-methyl-1,5-dihydro-4H-pyrazolo[3,4-d]pyrimidin-4-one], 22 nM; for `CCNc1nccc(-c2n[nH]c3nc(N4CCC5(CC4)CO[C@@H](C)[C@H]5N)n(C)c(=O)c23)c1Cl` [Example 72, 6-((3S,4S)-4-amino-3-methyl-2-oxa-8-azaspiro[4.5]decan-8-yl)-3-(3-chloro-2-(ethylamino)pyridin-4-yl)-5-methyl-1,5-dihydro-4H-pyrazolo[3,4-d]pyrimidin-4-one], 47 nM.
For `C[C@H]1C[C@@H](N)C2(CCN(c3nc4[nH]nc(-c5ccnc(N(C)C)c5Cl)c4c(=O)n3C)CC2)C1` [Example 73, 6-((1R,3R)-1-amino-3-methyl-8-azaspiro[4.5]decan-8-yl)-3-(3-chloro-2-(dimethylamino)pyridin-4-yl)-5-methyl-1,5-dihydro-4H-pyrazolo[3,4-d]pyrimidin-4-one] the value was 28 nM.
With `C[C@@H]1OCC2(CCN(c3nc4[nH]nc(-c5ccnc(NCC6CC6)c5Cl)c4c(=O)n3C)CC2)[C@@H]1N` [Example 74, 6-((3S,4S)-4-amino-3-methyl-2-oxa-8-azaspiro[4.5]decan-8-yl)-3-(3-chloro-2-((cyclopropylmethyl)amino)pyridin-4-yl)-5-methyl-1,5-dihydro-4H-pyrazolo[3,4-d]pyrimidin-4-one], the IC50 was 39 nM.
For `C[C@H]1C[C@@H](N)C2(CCN(c3nc4[nH]nc(-c5ccnc(N)c5Cl)c4c(=O)n3C)CC2)C1` [Example 76, 3-(2-amino-3-chloropyridin-4-yl)-6-((1R,3R)-1-amino-3-methyl-8-azaspiro[4.5]decan-8-yl)-5-methyl-1,5-dihydro-4H-pyrazolo[3,4-d]pyrimidin-4-one] the value was 32 nM; for `CNc1nccc(-c2n[nH]c3nc(N4CCC5(CC4)C[C@@H](C)C[C@H]5N)n(C)c(=O)c23)c1Cl` [Example 77, 6-((1R,3R)-1-amino-3-methyl-8-azaspiro[4.5]decan-8-yl)-3-(3-chloro-2-(methylamino)pyridin-4-yl)-5-methyl-1,5-dihydro-4H-pyrazolo[3,4-d]pyrimidin-4-one], 30 nM; for `Cc1c(-c2n[nH]c3nc(N4CCC5(CC4)CO[C@@H](C)[C@H]5N)n(C)c(=O)c23)ccnc1Cl` [Example 78, 6-((3S,4S)-4-amino-3-methyl-2-oxa-8-azaspiro[4.5]decan-8-yl)-3-(2-chloro-3-methylpyridin-4-yl)-5-methyl-1,5-dihydro-4H-pyrazolo[3,4-d]pyrimidin-4-one], 17 nM.
Turning to `C[C@@H]1OCC2(CCN(c3nc4[nH]nc(-c5cc(Cl)ncc5Cl)c4c(=O)n3C)CC2)[C@@H]1N` [Example 79, 6-((3S,4S)-4-amino-3-methyl-2-oxa-8-azaspiro[4.5]decan-8-yl)-3-(2,5-dichloropyridin-4-yl)-5-methyl-1,5-dihydro-4H-pyrazolo[3,4-d]pyrimidin-4-one], the IC50 amounted to 30 nM.
To `C[C@@H]1OCC2(CCN(c3nc4[nH]nc(-c5cc(N)ncc5Cl)c4c(=O)n3C)CC2)[C@@H]1N` [Example 80, 6-((3S,4S)-4-amino-3-methyl-2-oxa-8-azaspiro[4.5]decan-8-yl)-3-(2-amino-5-chloropyridin-4-yl)-5-methyl-1,5-dihydro-4H-pyrazolo[3,4-d]pyrimidin-4-one] belongs 129 nM.
For `Cn1c(N2CCC(C)(CN)CC2)nc2[nH]nc(Sc3cccc(Cl)c3Cl)c2c1=O` [Example 83, 6-(4-(aminomethyl)-4-methylpiperidin-1-yl)-3-((2,3-dichlorophenyl)thio)-5-methyl-1,5-dihydro-4H-pyrazolo[3,4-d]pyrimidin-4-one] the value was 8 nM; for `C[C@@H]1OCC2(CCN(c3nc4[nH]nc(Sc5ccnc(N)c5Cl)c4c(=O)n3C)CC2)[C@@H]1N` [Example 84, 3-((2-amino-3-chloropyridin-4-yl)thio)-6-((3S,4S)-4-amino-3-methyl-2-oxa-8-azaspiro[4.5]decan-8-yl)-5-methyl-1,5-dihydro-4H-pyrazolo[3,4-d]pyrimidin-4-one], 27 nM; for `C[C@@H]1OCC2(CCN(c3cnc4c(-c5ccnc(Cl)c5Cl)n[nH]c4n3)CC2)[C@@H]1N` [Example 85, (3S,4S)-8-(3-(2,3-dichloropyridin-4-yl)-1H-pyrazolo[3,4-b]pyrazin-6-yl)-3-methyl-2-oxa-8-azaspiro[4.5]decan-4-amine], 67 nM.
